Common to all, as to assay: DTP human tumour cell line panel, 48 h
Experiment [1] concerns DU-145 prostate.
For experiment [2], the system named is SK-MEL-28 melanoma.
Experiment [3] has as its system SN12C renal.
For experiment [4], the system named is UO-31 renal.
Experiment [5] relates to SK-OV-3 ovarian.
The test system of experiment [6] is SR leukemia.
For experiment [7], the system named is T-47D breast.
The test system of experiment [8] is A549 NSCLC.
In experiment [9] the test system is K-562 leukemia.
In experiment [10] the test system is MOLT-4 leukemia.

The text below walks through data of PubChem BioAssay (NCI).

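In this assay, cells in 96-well plates receive the compound at five concentrations for 48 hours. Endpoints are linearly interpolated between the surrounding concentrations. At the GI50, growth is halved. TGI denotes the concentration required for complete inhibition of growth.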 A value given as a limit tells only on which side of the number the result lay.

Turning to `Nc1cccc(-c2nc3sccn3c2-c2ccnc(NCCCNS(=O)(=O)c3ccc(C(F)(F)F)cc3)n2)c1`, the GI50 (usually the concentration at which growth is held to half of that of the control) in [1] was 4.26 µM; in [2], 5.07 µM; in experiment [3] it was 4.36 µM; in experiment [4], 3.2 µM; in experiment [5] it was 5.37 µM; in experiment [6], 3.84 µM. In addition, the GI50 in experiment [7] was 1.37 µM; in experiment [8], 4.1 µM; in [9] it was 2.77 µM; in experiment [10] it was 2.8 µM. The total growth inhibition concentration (TGI) – broadly, the concentration at which net growth stops – is 35.6 µM in experiment [1]; 26.7 µM in [2]; greater than 100 µM in experiment [3]; 27.5 µM in [4]; greater than 100 µM in [5]; 43.9 µM in experiment [6]. Further, the total growth inhibition concentration (TGI) in experiment [7] is 5.18 µM; in [8], 87.4 µM; in experiment [9], greater than 100 µM; in experiment [10], 10.4 µM.

Consider `COc1ccc(C2=C(Br)C(=O)OC2)cc1Cl`, for which the GI50 was 20.8 µM in experiment [1]; 30.9 µM in [2]; 22.1 µM in experiment [3]; 39.6 µM in experiment [4]; 22.1 µM in [6]; 1.93 µM in [7]. Further, the GI50 was 18.5 µM in [8], 33.7 µM in [9] and 29.5 µM in [10]. The TGI in [1] is 88.9 µM; in [2], greater than 93.1 µM; in experiment [3], 52.3 µM; in [4] it was greater than 100 µM; in experiment [5], greater than 66.9 µM; in experiment [6], greater than 100 µM. For the same compound, the TGI in [7] was 35.5 µM; in [8], 53.6 µM; in [9] it was greater than 86.2 µM; in experiment [10] it was greater than 100 µM.

On to `CCCCC(SC(=S)N(CC)CC)C(=O)Nc1nc(CC(=O)OCC)cs1` (centres undefined), for which the GI50 in experiment [1] was 98.3 µM; in experiment [2] it was 47.3 µM; in experiment [3] it was 77.8 µM; in [4] it was 47.6 µM; in [5] it was 75.6 µM; in experiment [6], 29.4 µM. In addition, the GI50 is 24.7 µM in experiment [7], 30.8 µM in [8], 25 µM in experiment [9] and 20.2 µM in experiment [10]. The TGI in experiment [1], in experiment [2], in experiment [3], in experiment [4], in [5] and in experiment [6] was greater than 100 µM throughout. The concentration for total growth inhibition (TGI) in experiment [7], in [8], in experiment [9] and in [10] was greater than 100 µM in each case.

For `Clc1cccc(Cn2cc(Cc3cn(Cc4cccc(Cl)c4)c4ccccc34)c3ccccc32)c1`, the GI50 in experiment [1] is greater than 100 µM; in experiment [2], greater than 100 µM; in experiment [3] it was greater than 100 µM; in [4] it was 10.5 µM; in experiment [5], greater than 100 µM; in [6] it was greater than 100 µM. The GI50 in [7], in experiment [8], in [9] and in experiment [10] was greater than 100 µM throughout. The TGI in [1], in [2], in experiment [3], in experiment [4], in experiment [5] and in experiment [6] was greater than 100 µM each time. The TGI in experiment [7], in experiment [8], in experiment [9] and in [10] was greater than 100 µM each time.

Consider `CNC(=O)c1cc(Oc2ccc3nc(NC(=O)c4cc(C(F)(F)F)cc(C(F)(F)F)c4)sc3c2)ccn1`, for which the GI50 in experiment [1] was 3.69 µM; in experiment [2] it was 3.76 µM; in [3], 3.22 µM; in [4] it was 2.19 µM; in experiment [5], 2.52 µM; in experiment [6], 3.37 µM. Moreover, the GI50 is 3.04 µM in [7], 3.99 µM in experiment [8], 3.53 µM in [9] and 2.62 µM in experiment [10]. The TGI worked out at 15.9 µM in experiment [1]; 43.7 µM in [2]; 12.5 µM in [3]; 8.95 µM in [4]; 7.98 µM in [5]; 15 µM in experiment [6]. In addition, the TGI is 9.17 µM in [7], 14.6 µM in experiment [8], greater than 100 µM in [9] and 12.4 µM in experiment [10].

On to `C=CC[Se]C(=O)c1ccccc1OC(C)=O`, for which the GI50 in [1] was 3.08 µM; in [2], 1.85 µM; in experiment [3], 1.61 µM; in experiment [4] it was 1.48 µM; in experiment [5], 1.2 µM; in experiment [6], 2.41 µM. The GI50 was 2.45 µM in experiment [7], 0.769 µM in experiment [8], 3.1 µM in experiment [9] and 2.9 µM in experiment [10]. Besides, the TGI in experiment [1] was 11.6 µM; in experiment [2] it was 3.53 µM; in [3], 3.01 µM; in [4], 2.81 µM; in experiment [5], 2.54 µM; in experiment [6], 19.2 µM. In addition, the TGI was 6.06 µM in [7], greater than 100 µM in experiment [8], greater than 100 µM in experiment [9] and 8.43 µM in [10].

For `CC(C)[C@@H]1NC(=O)[C@]2(C)CSC(=N2)c2csc(n2)CNC(=O)C[C@@H](/C=C/CCS)OC1=O`, the GI50 in experiment [1] is 0.147 µM; in experiment [2], 0.0564 µM; in [3], 0.403 µM; in [4], 0.605 µM; in experiment [5] it was 0.0204 µM; in experiment [6] it was 0.0563 µM. The GI50 in experiment [7] was 0.491 µM; in experiment [8], 0.0383 µM; in [9], 0.273 µM; in [10], 0.171 µM. Moreover, the TGI was greater than 100 µM in [1]; 7.01 µM in experiment [2]; greater than 100 µM in experiment [3]; 6.5 µM in experiment [4]; 0.228 µM in experiment [5]; greater than 100 µM in experiment [6]. The total growth inhibition concentration (TGI) in experiment [7] is 7.5 µM; in experiment [8], 20.9 µM; in experiment [9], greater than 100 µM; in [10] it was greater than 100 µM.
